Values joined by “and” are separate entries in the source; they are usually repeats but may differ in a detail not shown here. Equal entries are not always repeated. “Also recorded” adds a separate entry of the source.
Columns and labels:
[1] = tested on: T. gondii ME49 bradyzoites; assay: Gametes and intracellular oocyst walls (AO2, 3G4, PCR) in infected cat intestinal monolayers; type: cell-based, Toxoplasma gondii; conditions: cultured cat cells, 200 μM fatty acid, 7 days of infection
Method: FIGS. 7A-H. Identification of gametes and intracellular oocysts in cat tissue culture. Cat intestinal organoids were disassociated by trypsin then grown as monolayers on glass slides. […] After 7 days, monolayers were incubated with mouse anti-AO2 (panels A-C) or mouse monoclonal IgM 3G4 (panels E-G), The amiloride-sensitive amine oxidase, copper-containing protein 2 (AO2) is an enzyme exclusively expressed in macrogametes and early oocysts and has a possible role in oocyst wall biogenesis. […] 3G4 is a mouse monoclonal antibody produced by immunizing mice with purified oocyst walls, thus it is a marker of oocyst wall biogenesis. Only monolayers supplemented with linoleic acid (G) had positive 3G4 vacuoles. All panels are 20 μm square with a 5 μm white size bar in the lower right corner. D) Markers for macrogamete and microgamete expression were also evaluated by PCR. Cat intestinal monolayers were grown in 24-well plates until confluency and then infected with T. gondii bradyzoites in duplicate using the same conditions as above. 7 days post-infection, RNA was extracted with TRIzol and cDNA was synthesized using an oligo (dT) primer to only amplify mRNA. AO2 was again used as a marker for macrogametes and the expected PCR product is 218 bp. To assess microgamete presence, we selected the gene TgME49_306338, which is overexpressed in the gametes stage, corresponded to day 7 post-infection in cats and has 44% identity to a protein expressed in the flagella of the motile green algae Chlamydomonas reinhardtii. The expected PCR product for TgME49_306338 is 160 bp. TUB1A was used as an input control and results in a 172 bp product. NO RT corresponds to a cDNA synthesis reaction without the addition of reverse transcriptase (RI) as a control for genomic DNA contamination. Equivalent amounts of cDNA per sample were used as a template for each PCR reaction, and the products were separated on an acrylamide gel. […] H) The number of positive oocyst walls stained with 3G4 were quantified. […] The number of positive oocyst walls were counted in each slide and divided by the area of slide in cm^2.
Immunofluorescence. Intestinal organoid monolayers or mouse fecal samples were fixed in 3.7% formaldehyde in PBS for 20 minutes, permeabilized with 0.2% triton X-100 (Sigma) in PBS at room temperature for one hour and then blocked with 3% BSA in PBS at room temperature for one hour. Primary antibody was incubated at 4° C. overnight in 0.2% v/v Triton x-100 and 3% BSA in PBS (1:100 mouse anti-GRA11B, 1:100 rabbit anti-BRP1, 1:100 mouse anti-AO2, 1:50 monoclonal mouse anti-ZO1 (Santa Cruz) or 1:25 mouse 288 IgM anti-oocyst wall 3G4. Sporulated oocysts from mouse feces were dried onto slides, fixed and permeabilized with ice cold acetone for 30 minutes and incubated with 1:20 mouse 4B6 to the visualize the sporocyst. Slides were incubated one hour with the specific secondary antibody (1:500 goat anti-rabbit Alexa Fluor 488 and 1:500 goat anti-mouse Alexa Fluor 594) at room temperature for one hour and then washed 3 times with PBS. Cells nuclei were stained with 10 μM DAPI (Sigma). Slides were mounted in Vectashield antifade mounting medium (VectorLabs). Samples were imaged on Zeiss Axioplan III equipped with a triple-pass (DAPI/fluorescein isothiocyanate [FITC]/Texas Red) emission cube, differential interference contrast optics, and a monochromatic Axiocam camera operated by Zen software (Zeiss) and processed using ImageJ (Fiji packet).
PCR of cat intestinal monolayers. […]

[2] = tested on: T. gondii ME49 bradyzoites; assay: qPCR of SAG1, GRA11B, TUB1A on cDNA of infected cat intestinal monolayers; type: cell-based, Toxoplasma gondii; conditions: cat intestinal monolayers cDNA
Method: (§1) FIGS. 6A-B. Quantification of merozoites in cat tissue culture. A) Cat intestinal organoids were disassociated by trypsin then grown as monolayers on glass slides. Slides were divided into three different groups: not supplemented with fatty acid, supplemented with 200 μM oleic acid or supplemented 200 μM linoleic acid. Monolayers were infected with T. gondii MEM bradyzoites purified from brains of chronic infected mice at a 1:10 MOI. Five days after infection, staining for GRA11B and BRP1 along with DAPI, allowed the percentage of vacuoles positive for GRA11B and BRP1out of the total vacuoles was determined. Total number of parasitophorous vacuoles were counted by positive DAPI staining and confirmed by morphology with DIC. At least 50 parasitophorous vacuoles were counted per replicate. Three biological replicates were counted and on average 35% of the total vacuoles were positive far both GRA11B and BRP1 in the linoleic acid supplemented monolayers. *p-value=0.0126 with N=3 by two-tailed unpaired t test. Straining for both BRP1 and GRA11B was used to ensure that merozoite stages were counted. […] BRP1 is a rhoptry protein that was initially found in bradyzoites; however, it is also expressed in merozoite. B) Cat intestinal monolayers were grown as described in panel A, except monolayers were quenched by TRIzol 5 days post-infection, RNA was extracted, and cDNA was synthesized using an oligo (dT) primer to amplify mRNA, Expression of SAG1 and GRA11B were quantified by qPCR and the fold change calculated in comparison with uninfected cells. TUB1A was used to normalize gene expression across samples.
Real-time PCR on ileum cDNA. Z-DNA binding protein deletion mice ice with and without delta-6-desaturase inhibitor treatment were euthanized 7 days post infection. The ileum of each mouse was removed and homogenized in 1 mL of TRIzol. Total RNA was isolated according to manufacturer's protocol (Invitrogen) and treated with amplification grade Dnase I. cDNA was generated using the Invitrogen SuperScript III First-Strand Synthesis kit with random hexamer primers. GRA11B and SAG1 were used as markers of sexual and asexual stages, respectively. The T. gondii housekeeping gene TUB1A was used to normalize target gene expression. Real-time quantitative PCR was performed using Bio-Rad iTaq Universal SYBR Green Supermix on 311 an Applied Biosystems StepOnePlus Real-Time PCR system. The efficiency of each primer set was calculated from the slope of a 1:10 dilution standard curve of tachyzoite gDNA, where E=10^(−1/slope). The Pfaffl method (Pfaffl, 2001), which accounts for differences in efficiencies, was then used to calculate the relative gene expression of GRA11B and SAG1 per sample, in triplicate. Only wells with one melt curve temperature were used, indicating a single product. Primer sequences were as follows: […]

[3] = tested on: T. gondii ME49 bradyzoites; assay: Merozoite markers GRA11B/BRP1, immunofluorescence, infected cat intestinal monolayers; type: cell-based, Toxoplasma gondii; conditions: 200 μM fatty acid, 5 days of infection
Method: as §1, with “B) Cat intestinal monolayers were grown as described in panel A, except monolayers were quenched by TRIzol 5 days post-infection, RNA was extracted, and cDNA was synthesized using an oligo (dT) primer to amplify mRNA, Expression of SAG1 and GRA11B were quantified by qPCR and the fold change calculated in comparison with uninfected cells. TUB1A was used to normalize gene expression across samples.” left out

[4] = whole animal experiments (He et al., 2012); cited from earlier work
T. gondii [5] = assay: Oocyst counts in mouse feces by microscopy; type: in vivo, Toxoplasma gondii; conditions: mice, inhibitor every 12 hours for the 7 days of infection
Method: (§2) Delta-6-desaturase inhibition. SC 26196 (Cayman) was solubilized in DMSO and used at 20 μM in mouse organoid monolayers. For in vivo treatment, the inhibitor was solubilized in 0.5% m/v methylcellulose and the mice were given 50 mg/kg every 12 hours by oral gavage (He et al., 2012). 4-week old C57BL/6J female mice deleted in Z-DNA-binding protein (Pittman et al., 2016) were divided into four different groups: uninfected control, T. gondii-infected without fatty acid supplementation, T. gondii infected with linoleic acid supplementation, and T. gondii-infected with linoleic acid and SC 26196 inhibitor. Each mouse supplemented with linoleic acid received 10 μL of 99% linoleic acid oil (MilliporaSigma Cat #843483) suspended in 0.5% Methylcellulose per day by oral gavage. Mice were infected with 1000 brain cysts purified as described above by oral gavage and euthanized 7 days post infection. Sample size was at least 2 mice per group and the experiment was repeated 5 times. Alternatively, each mouse was infected with one mouse brain at least 2 months postinfection with at least 1000 cysts. Mice were treated with SC 26196 until day 5 postinfection. Feces were collected from days 5-14 and oocysts enumerated by microscopy.

[6] = tested on: T. gondii ME49 bradyzoites; assay: Real-time PCR on ileum cDNA of infected Z-DNA binding protein knock out mice; type: in vivo, Toxoplasma gondii; conditions: mice, linoleic acid and SC26196 50 mg/kg every 12 hours by oral gavage, seven days after infection
Method: as §2
Real-time PCR on ileum cDNA. Z-DNA binding protein deletion mice ice with and without delta-6-desaturase inhibitor treatment were euthanized 7 days post infection. The ileum of each mouse was removed and homogenized in 1 mL of TRIzol. Total RNA was isolated according to manufacturer's protocol (Invitrogen) and treated with amplification grade Dnase I. cDNA was generated using the Invitrogen SuperScript III First-Strand Synthesis kit with random hexamer primers. GRA11B and SAG1 were used as markers of sexual and asexual stages, respectively. The T. gondii housekeeping gene TUB1A was used to normalize target gene expression. Real-time quantitative PCR was performed using Bio-Rad iTaq Universal SYBR Green Supermix on 311 an Applied Biosystems StepOnePlus Real-Time PCR system. The efficiency of each primer set was calculated from the slope of a 1:10 dilution standard curve of tachyzoite gDNA, where E=10^(−1/slope). The Pfaffl method (Pfaffl, 2001), which accounts for differences in efficiencies, was then used to calculate the relative gene expression of GRA11B and SAG1 per sample, in triplicate. Only wells with one melt curve temperature were used, indicating a single product. Primer sequences were as follows:
Statistical methods. All real-time PCR fecal samples were run in triplicate technical replicates. The difference between the mean target gene copy numbers was analyzed by two-tailed unpaired t tests. The real-time PCR intestinal samples were run in triplicate from two biological replicates per group. The difference between the mean relative expression of each target gene was analyzed by two-tailed unpaired t tests.

murine organoids = assay: Monolayer formation of murine organoids with delta 6-desaturase inhibitor; type: cell-based, mouse; conditions: about 2 μM to 200 μM, medium with about 200 μM linoleic acid
T. gondii [7] = assay: Real-time PCR (SAG1) on gDNA of mouse fecal samples; type: in vivo, Toxoplasma gondii; conditions: mice fed linoleic acid, with or without SC26196
Method: as §2
Real-time PCR on fecal samples. […] A standard curve was generated using a dilution series of 101-105 parasites per well amplified using the SAG1 primer set described above, based on a gDNA sample with known parasite quantity. […]
[formula] […] The calculated copy numbers of each sample were normalized based on the ng of nucleic acid used as PCR template. […]
Statistical methods. […] The difference between the mean target gene copy numbers was analyzed by two-tailed unpaired t tests. […] The difference between the mean relative expression of each target gene was analyzed by two-tailed unpaired t tests.

[8] = biological replicates 1 and 2, wells 1-3

Row | SMILES | number of positive oocyst walls stained with 3G4 [1] | GRA11B Ct mean ([2]; biological replicates 1 and 2) | SAG1 Ct mean ([2]; biological replicates 1 and 2) | GRA11B raw Ct values [2, 8] | SAG1 raw Ct values [2, 8] | parasites undergoing sexual development / merozoite stage markers GRA11B and BRP1 (staining) [3] | anti-inflammatory effect [4] | oocysts produced (T. gondii [5]) | expression of merozoite marker GRA11B, qPCR of ileum cDNA [6] | monolayer formation (murine organoids) | T. gondii genomic DNA in mouse fecal samples (qPCR, SAG1 primers) (T. gondii [7])
1 | CCCCCCCC/C=C\CCCCCCCC(=O)O [oleic acid] | none | 32.53 and 31.82 | 20.83 and 19.56 | 32.44 and 31.77 (2×) and 32.73 and 31.91 and 32.43 | 20.87 and 19.66 and 20.88 and 19.54 and 20.75 and 19.46 | not |  |  |  |  | 
2 | N#CC(CCCN1CCN(/N=C/c2cccnc2)CC1)(c1ccccc1)c1ccccc1 [SC26196] |  |  |  |  |  |  | effective as an anti-inflammatory agent | 1000-10,000 oocysts/gram dry feces | significantly up regulated only in the presence of SC26196 | did not inhibit monolayer formation | detectable only in mice treated with SC26196; also recorded: detected only in mice treated with SC26196

— US12171821B2, “Toxoplasma gondii vaccine” (priority 2018, dated 2024)
